Here are results for one compound from patent US20240238076A1, “PROCESS FOR PRODUCING VASCULAR PROSTHESES” (Medizinische Universität Wien, priority 2021, published 2024).

The data set relates to HUVECs. Put plainly: XTT cytotoxicity test with HUVEC cultures. In kind it is cell-based, human. Particulars: 24 h incubation, 10-fold dilution series from 450 μmol/ml. The protocol: Human umbilical vein endothelial cells (HUVEC, pooled donator, Lonza, Switzerland) were cultivated in endothelial growth medium (EGM-2, Lonza, Switzerland) supplemented with 10% of FBS. The exchange of medium was conducted every other day. The cells were used for the experiments between passage 3 and 6.
XTT (2,3-bis(2-methoxy-4-nitro-5-sulfophenyl)-5-[(phenylamino)carbonyl)-2H-tetrazoliumhydroxide) can be reduced to a formazan product in viable cells. The result can be determined by photometric measurements and correlated with the number of viable cells. The assay was conducted based on ISO10993-5.
HUVECs or macrophages were seeded on the polymer disks at a cell number of 10,000 cells/disk in a 96 well plate for 24 h until a confluent cell layer was formed. XTT powder was dissolved in a cell culture medium with 60° C. at a concentration of 1 mg/ml. PMS (phenazine methosulfate, Sigma-Aldrich, USA) was dissolved in PBS at a concentration of 5 mM. For preparing a working solution, which was added to cells, PMS was pipetted into the XTT solution at a concentration of 25 μM. The cells were incubated with 50 μl of this XTT working solution for 4 h at 37° C. in a cell culture incubator. The medium was then transferred to a new 96 well plate, and absorption at 450 nm was measured with a reference wavelength of 620 nm. The results are shown in FIG. 9 as mean values of three determinations. […]
A general note: Tetrazolium dyes change colour on reduction, which living cells bring about.

On to `CC(C)(C)NCCNC(C)(C)C` [TBEDA, N,N′-di-tert-butylethylenediamine], for which the “Concentration from which the viability of HUVECs was at an acceptable level” value turned out to be 45000 µM.
